Results from US20020137929A1, “1 - (3-heterocyclylphenyl) isothiourea, -isourea, -guanidine and -amidine herbicidal agents” (Intellectual Property Department, BASF Aktiengesellschaft, priority 1998, published 2002).

Key:
[1] = test system: ORYSAT (Rice, Tebonnet); assay: Rice tolerance to post-transplant applications, flooded paddy conditions (Table III); assay type: in vivo, Oryza sativa, (L.) Tebonnet
Description: (§1) Results of herbicide evaluation are expressed on a rating scale (0-9). The scale is based upon a visual observation of plant stand, vigor, malformation, size, chlorosis and overall plant appearance as compared with a control.
The tolerance of transplanted rice to post-transplanted herbicide applications is determined as follows: two ten-day-old rice seedlings (cv. Tebonnet) are transplanted into silt loam soil in 32 oz. plastic containers with a diameter of 10.5 cm and no drainage holes. After transplanting, the containers are flooded and the water level is maintained at 1.5 to 3 cm above the soil surface. Three days after transplanting, the flooded soil surface of the containers is treated with the selected aqueous/acetone 50/50 v/v mixture containing the test compounds to provide the equivalent of about 0.0313 to 0.500 kg/ha of active ingredient. The treated containers are placed on greenhouse benches, watered such that the water level is maintained as stated above, and cared for in accordance with conventional greenhouse procedures. Three to four weeks after treatment, the test is terminated and each container is examined and herbicidal effect rated according to the rating system provided in Example 37. The compounds evaluated are reported by compound number given in Example 37.
Plant species employed in this example are reported by header abbreviation, common name and scientific name.

[2] = test system: ORYSAT (Rice, Tebonnet); assay: Rice tolerance to post-transplant applications, flooded paddy conditions (Table IV); assay type: in vivo, Oryza sativa, (L.) Tebonnet
From the text: as §1
Plastic containers containing weeds which are 3 to 5 cm tall and rice seedlings at the 1.5 to 2.5 leaf stage are flooded with water. The water is maintained at 1.5 to 3 cm above the soil surface for the duration of the experiment. Test compounds are applied as aqueous/ acetone mixtures 50/50 v/v directly into the flood water to provide the equivalent of about 0.0313 to 0.500 kg/ha of active ingredient. The treated containers are placed on greenhouse benches and cared for in accordance with conventional greenhouse procedures. Three to four weeks after treatment, the test is terminated and each container is examined and herbicidal effect rated according to the rating system provided in Example 37. The compounds evaluated are reported by compound number given in Example 37.

[3] = test system: GALAP (Galium); assay: Postemergence herbicidal evaluation; assay type: in vivo, Galium aparine; conditions: postemergence
How it was run: (§2)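 First, seedlings were raised for around two weeks. Next, test material in 50/50 acetone/water containing 0.5% TWEEN 20 was sprayed through a nozzle at 40 psi, equivalent to about 0.0156–0.500 kg/ha. Finally, after 4–5 weeks in the greenhouse, plants were rated 0–9.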

[4] = test system: MOOVA (Monochoria); assay: Postemergence weed control under flooded paddy conditions; assay type: in vivo, Monochoria vaginalis; conditions: postemergence weeds, 3-4 weeks after treatment
How it was run: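 Flood-water application, about 0.0313–0.500 kg/ha a.i. in aqueous/acetone 50/50 v/v; water depth 1.5–3 cm throughout. Weeds 3–5 cm, rice 1.5–2.5 leaf. Greenhouse; 0–9 visual rating vs control at 3–4 wk.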

[5] = test system: GALAP (Galium); assay: Preemergence herbicidal evaluation; assay type: in vivo, Galium aparine; conditions: rated 4-5 weeks after treatment
How it was run: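 Sown cups got a single aqueous acetone spray of test compound (roughly 0.0156–0.500 kg/ha) before seedlings emerged. Evaluation, 4–5 weeks on, used a 0–9 visual scale covering plant stand, vigor, size, malformation, chlorosis and general appearance compared with controls.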

[6] = test system: ABUTH (Velvetleaf); assay: Postemergence herbicidal evaluation; assay type: in vivo, Abutilon theophrasti; conditions: postemergence
How it was run: as §2

Compound: CCOC(=O)/C=C1/S/C(=N/c2cc(-n3c(=O)cc(C(F)(F)F)n(C)c3=O)c(F)cc2Cl)N(CC(=O)OCC)C1=O [Compound 14]
- Herbicidal rating ORYSAT (rice tolerance) ([1]; 0.0313 kg/ha, post-transplant rice, flooded paddy, rated 3-4 weeks after treatment): 0.0
- Herbicidal rating ORYSAT (rice tolerance) ([1]; 0.0625 kg/ha, post-transplant rice, flooded paddy, rated 3-4 weeks after treatment): 0.5
- Herbicidal rating ORYSAT (rice tolerance) ([1]; 0.1250 kg/ha, post-transplant rice, flooded paddy, rated 3-4 weeks after treatment): 1.0
- Herbicidal rating ORYSAT (rice tolerance) ([1]; 0.2500 kg/ha, post-transplant rice, flooded paddy, rated 3-4 weeks after treatment): 0.0
- Herbicidal rating ORYSAT (rice tolerance) ([2]; rate 0.0313 kg/ha, flooded paddy, post-transplant rice, 3-4 weeks after treatment): 0.0
- Herbicidal rating ORYSAT (rice tolerance) ([2]; rate 0.0625 kg/ha, flooded paddy, post-transplant rice, 3-4 weeks after treatment): 0.3
- Herbicidal rating ORYSAT (rice tolerance) ([2]; rate 0.1250 kg/ha, flooded paddy, post-transplant rice, 3-4 weeks after treatment): 0.5
- Herbicidal rating ORYSAT (rice tolerance) ([2]; rate 0.2500 kg/ha, flooded paddy, post-transplant rice, 3-4 weeks after treatment): 0.0
- GALAP herbicidal rating ([3]; rate 0.0156 kg/ha): 2.0
- GALAP herbicidal rating ([3]; rate 0.0313 kg/ha): 4.0
- GALAP herbicidal rating ([3]; rate 0.0625 kg/ha): 5.0
- GALAP herbicidal rating ([3]; rate 0.1250 kg/ha): 6.0
- Herbicidal rating MOOVA ([4]; rate 0.0313 kg/ha): 6.8
- Herbicidal rating MOOVA ([4]; rate 0.0625 kg/ha): 6.8
- Herbicidal rating MOOVA ([4]; rate 0.1250 kg/ha): 6.8
- Herbicidal rating MOOVA ([4]; rate 0.2500 kg/ha): 4.5
- GALAP preemergence herbicidal rating ([5]; rate 0.0313 kg/ha): 0.0
- GALAP preemergence herbicidal rating ([5]; rate 0.0625 kg/ha): 0.0
- GALAP preemergence herbicidal rating ([5]; rate 0.1250 kg/ha): 9.0
- GALAP preemergence herbicidal rating ([5]; rate 0.2500 kg/ha): 9.0
- ABUTH herbicidal rating ([6]; rate 0.0156 kg/ha): 9.0
- ABUTH herbicidal rating ([6]; rate 0.0313 kg/ha): 9.0
- ABUTH herbicidal rating ([6]; rate 0.0625 kg/ha): 9.0
- ABUTH herbicidal rating ([6]; rate 0.1250 kg/ha): 9.0

Compound: CCOC(=O)CN1C(=O)C(=Cc2ccccc2)SC1=Nc1cc(-n2c(=O)cc(C(F)(F)F)n(C)c2=O)c(F)cc1Cl [Compound 19, Ethyl 5-benzylidene-2-{{2-chloro-5-[3,6-dihydro-3-methyl-2,6-dioxo-4-(trifluoromethyl)-1(2H)-pyrimidinyl]-4-fluorophenyl}imino}-4-oxo-3-thiazolidineacetate]
- Herbicidal rating ORYSAT (rice tolerance) ([1]; in vivo): 3.0
- Herbicidal rating ORYSAT (rice tolerance) ([2]; in vivo): 3.0
- GALAP herbicidal rating ([3]; rate 0.0158 kg/ha): 2.0
- GALAP herbicidal rating ([3]; rate 0.0315 kg/ha): 3.0
- GALAP herbicidal rating ([3]; rate 0.0630 kg/ha): 3.0
- Herbicidal rating MOOVA ([4]; rate 0.1160 kg/ha): 9.0
- Herbicidal rating MOOVA ([4]; rate 0.2310 kg/ha): 9.0
- Herbicidal rating MOOVA ([4]; rate 0.4630 kg/ha): 9.0
- GALAP preemergence herbicidal rating ([5]; rate 0.1250 kg/ha): 0.0
- GALAP preemergence herbicidal rating ([5]; rate 0.2500 kg/ha): 0.0
- ABUTH herbicidal rating ([6]; rate 0.0158 kg/ha): 9.0
- ABUTH herbicidal rating ([6]; rate 0.0315 kg/ha): 9.0
- ABUTH herbicidal rating ([6]; rate 0.0630 kg/ha): 9.0

Compound: CCOC(=O)CN1C(=O)C(Cc2ccccc2)SC1=Nc1cc(-n2c(=O)cc(C(F)(F)F)n(C)c2=O)c(F)cc1Cl (stereo not shown) [Compound 24, Ethyl 5-benzyl-2-{{2-chloro-5-[3,6-dihydro-3-methyl-2,6-dioxo-4-(trifluoromethyl)-1(2H)-pyrimidinyl]-4-fluorophenyl}imino}-4-oxo-3-thiazolidineacetate]
- Herbicidal rating ORYSAT (rice tolerance) ([1]; in vivo): 0.0
- Herbicidal rating ORYSAT (rice tolerance) ([2]; in vivo): 0.0
- GALAP herbicidal rating ([3]; rate 0.0158 kg/ha): 1.0
- GALAP herbicidal rating ([3]; rate 0.0315 kg/ha): 4.0
- GALAP herbicidal rating ([3]; rate 0.0630 kg/ha): 6.0
- Herbicidal rating MOOVA ([4]; rate 0.0313 kg/ha): 0.0
- Herbicidal rating MOOVA ([4]; rate 0.0625 kg/ha): 9.0
- Herbicidal rating MOOVA ([4]; rate 0.1250 kg/ha): 9.0
- Herbicidal rating MOOVA ([4]; rate 0.2500 kg/ha): 9.0
- GALAP preemergence herbicidal rating ([5]; rate 0.0625 kg/ha): 0.0
- GALAP preemergence herbicidal rating ([5]; rate 0.1250 kg/ha): 0.0
- GALAP preemergence herbicidal rating ([5]; rate 0.2500 kg/ha): 4.0
- ABUTH herbicidal rating ([6]; rate 0.0158 kg/ha): 9.0
- ABUTH herbicidal rating ([6]; rate 0.0315 kg/ha): 9.0
- ABUTH herbicidal rating ([6]; rate 0.0630 kg/ha): 9.0
